Source: patent publication US20020049157A1, “Use of proteasome inhibitors for treating cancer, inflammation, autoimmune disease, graft rejection and septic shock” (priority 1998, published 2002)

Experiments:
Tonsillar T cells = experiment: T cell viability by trypan blue exclusion; format: cell-based, human; conditions: for decrease of viability compared with cells without LAC: 10 μM LAC, medium or PHA
Procedure: Tonsillar T cells (A, B, and D) and Jurkat cells (C and E) were treated with LAC (10 μM for T cells and 6 μM for Jurkat cells). LAC was added at the beginning of the culture or 40 h after T cell activation as indicated. The cells were harvested at the time points as shown. They were evaluated for their viability with trypan blue exclusion (A, B, and C), and for their mode of cell death according to DNA fragmentation (D and E).
The viability of T cells and Jurkat cells after LAC-treatment was first evaluated with trypan blue exclusion. Resting T cells (T cells in medium) or PHA-stimulated T cells were cultured with 10 μM LAC (LAC added at the beginning of the culture).
There was a tendency that the activated T cells were more susceptible to LAC than the resting T cells. This became more evident when LAC was added to T cells 40 h after the PHA activation (FIG. 2B). […] On the other hand, the viability of the resting T cells in medium had only a small decrease (from 98% of the control to 87% of the LAC-treated) after 24 h of LAC presence.

proteasome = experiment: Proteasome activity in lysates of LAC-pretreated Jurkat cells (proteinase assay, sLLVY-MCA); format: cell-based; conditions: for proteasome activity in Jurkat cells: 3 h preincubation with LAC 6 μM
Procedure: B. The inhibitory effect of LAC on the proteasome activity was reversible in the cells Jurkat cells were pretreated with LAC (6 μM) in culture medium for 3 h. The cells were washed and recultured at 0.5×10^6 cells/ml for 0 h, 5 h or 21 h. The cells were then harvested, washed and sonicated. The lysate protein (20 μg/sample) was assayed for its proteinase activity under a condition at which 90% of the activity was attributed to the proteasome. The samples were in duplicates. The result is expressed as relative fluorescence intensity at 440 nm.
We used Jurkat cells that have high constitutive proteasome activity to evaluate the duration of LAC's effect once the drug entered the cells. Jurkat cells were treated with LAC (6 μM) for 3 h, which was sufficiently long for the compound to enter the cells as shown above. The cells were then thoroughly washed and recuitured, and they were harvested at 0 h, 5 h and 21 h after the wash, and the proteasome activity in the cell lysates was measured using a chromogenic chymotrypsin substrate. We have previously established that the proteinase activity measured by this assay was predominantly (more than 90%) derived from the proteasome (Wang et al., 1997, Eur. J. Immunol., supra).

nitric oxide synthase = experiment: Northern blot of nitric oxide synthase expression in macrophages; format: cell-based, mouse; conditions: 2 μg/ml LPS
Procedure: Nitric oxide synthase expression was measured with Northern blot analysis.
BALB/c mice were injected i.p. with 3 ml of 3% thioglycollate broth. Three days later, peritoneal exudate macrophages of the mice were harvested and washed at 170 g for 10 min at 4° C. […]
The expression of inducible nitric oxide synthase at the mRNA level was analyzed by Northern blot as described in our previous publication (Shan et al., 1994, supra). After an overnight culture, the mouse macrophages were harvested and their total cellular RNA was extracted with the guanidine/CsCl method. The RNA (10 μg/lane) was resolved in 1% agarose-formaldehyde gels and blotted onto nylon membranes. A 562-bp fragment corresponding to the mouse iNOS cDNA (Xie et al., 1992, Science 256:225) was obtained by reverse transcription/PCR using the mouse macrophages total RNA as templates. The fragment was labeled with ^32p with random primers and used as a probe for the Northern blot.

Jurkat cells = experiment: Respiration (O2 consumption) of Jurkat cells, oxygen electrode; format: cell-based
Source text: The function of Complex I of digitonin (Dig)-permeated Jurkat cells was blocked by rotenone (Rot), and the respiration was resumed by adding succinate (Suc), which provides electrons to Complex II directly and thus bypasses Complex I. The maximal respiration was achieved by adding CCCP (carbonyl cyanide m-chlorophenylhydrazone), which uncouples the oxidation and phosphorylation. The respiration could be blocked by antimycin A (Ant), which inhibits […]. Curves 1 and 6 represent positive controls of rat kidney mitochondria. Curves 2 and 5 represent normals untreated Jurkat cells. Curves 3 and 4 represent Jurkat cells treated with lactacystin (6 μM) for 2 h and 4 h, respectively.
Complex III in the respiration chain was blocked at Complex III antimycin (Ant), and the electron flow was resumed by addiind ascorbate (Asc) and TMPD (tetramethyl-p-phenyl-enediamine).
The assay system is identical to that described in FIG. 16. Jurkat cells were treated with LAC for 4 h (curve 3). The decoupling reagent used in this experiment to achieve maximal respiration is FCCP (carbonylcyanide-p-trifluoromethoxyphenylhydrazone).
The Jurkat Cells (JC) (30×10^6/ml) or rat kidney proximal tubules mitochondria (RKM) (0.5 mg of protein/ml) were incubated in 1 ml measuring chamber at 37° C. in a respiration buffer containing 200 mM sucrose, 5 mM MgCl2, 5 mM KH2PO4, and 30 mM HEPES-Tris (pH 7.5). During respiration experiments following substrates and inhibitors were used: 0.005% Digitonine (Dig); 10 mM Succinate (Suc); 1 mM Ascorbate (Asc); 0.4 mM tetramethyl-p- phenylenediamine (TMPD); 1 μM CCCP, 1 μM FCCP; 0.1 μM Rotenone (Rot); 50 nM Antimycin A (Anti); 1 mM KCN; 100 μM Cytochrome C (Cyt C). The respiration rate of the Jurkat Cells and mitochondria was measured polarographically with a Clarke oxygen electrode (Yellow Springs Instruments, Yellow Springs, Ohio, U.S.A.) using 1 ml thermojacketed chamber. Oxygen concentration was calibrated with air-saturated buffer using Hypoxanthine—Xanthine Oxidase—Catalase system (“chemical zero”). Oxygen consumption was continuously recorded using a “MacLab/8” (Analog Digital Instruments, U.S.A.) connected to a Macintosh SE computer and the MacLab Chart v.3.3.4 software. Rates of oxygen consumption are expressed as ng-atoms of oxygen/min.

CC(=O)N[C@@H](CSC(=O)[C@]1([C@@H](O)C(C)C)NC(=O)[C@H](C)[C@@H]1O)C(=O)O [LAC, lactacystin]
decrease of viability compared with cells without LAC (Tonsillar T cells; 16 h culture): < 12% | decrease of viability compared with cells without LAC (Tonsillar T cells; 64 h culture): less than 27% | viability (trypan blue exclusion) (Tonsillar T cells; PHA-stimulated T cells, 10 μM LAC added at beginning, 16 h): 83% | viability (trypan blue exclusion) (Tonsillar T cells; PHA-stimulated T cells, 10 μM LAC added at beginning, 64 h): 63% | viability of the LAC-treated cell (Tonsillar T cells; PHA, LAC 10 μM added once initially, at 40 h): > 80% | viability of the treated cells (Tonsillar T cells; PHA, LAC added once at the beginning, at 16 h): 83 | change of viability (trypan blue exclusion) (Tonsillar T cells; activated T cells, LAC added 40 h after PHA, 9 h culture): did not change the viability significantly | viability (trypan blue exclusion) (Tonsillar T cells; activated T cells, LAC added 40 h after PHA, additional 24 h culture): 46% | viability (trypan blue exclusion) (Tonsillar T cells; resting T cells in medium, 10 μM LAC added at beginning, 16 h): 92% | viability (trypan blue exclusion) (Tonsillar T cells; resting T cells in medium, 10 μM LAC added at beginning, 64 h): 79% | viability (trypan blue exclusion) (Tonsillar T cells; resting T cells in medium, 24 h of LAC presence): 87% | active duration within the cell and in the culture media (proteasome): about 16 h | proteasome activity in Jurkat cells (proteasome; 0 h after wash): almost completely inhibited | proteasome activity in Jurkat cells (proteasome; 5 h after wash): still significantly inhibited | proteasome activity in Jurkat cells (proteasome; 21 h after wash): returned to a near-normal level | time in which LAC loses its activity in the cells (proteasome; Jurkat cells after 3 h LAC 6 μM and wash): ≤ 21 h | expression of mRNA for NO synthase (nitric oxide synthase): decreases the expression of mRNA for NO synthase | respiration after Complex I blockage (rotenone) on adding succinate (Jurkat cells; LAC 6 μM for 4 h): could not be resumed by adding succinate | O2 consumption after Complex III (ascorbate and TMPD) (Jurkat cells; LAC for 4 h): could not be resumed by ascorbate and TMPD | O2 consumption after the addition of ascorbate and TMPD (Jurkat cells; LAC for 4 h, FCCP as decoupling reagent): reduced augmentation of O2 consumption | electron transport of the respiratory chain (Jurkat cells; within 4 h): reduce the electron transport at the complex IV
